Experimental data: ChEMBL document CHEMBL1140066, “3,4-Dihydro-2H-1,4-benzoxazine derivatives combining thrombin inhibitory and glycoprotein IIb/IIIa receptor antagonistic activity as a novel class of antithrombotic compounds with dual function” (J Med Chem, 2008)
Activity calls are given as the source filed them. No cut-off for these calls is given here.

What was measured:
[1] = biological target: Integrin alpha-IIb/beta-3 (Homo sapiens, UniProt P05106+P08514); experiment: Inhibition of fibrinogen binding to human platelet GPIIb/IIIa receptor
[2] = system: Platelet; experiment: Inhibition of ADP-induced platelet aggregation in human platelet rich plasma at 50 uM; type: functional
[3] = biological target: Coagulation factor X (Homo sapiens, UniProt P00742); experiment: Inhibition of factor 10a
[4] = biological target: Prothrombin (Homo sapiens, UniProt P00734)
[5] = Selectivity for thrombin over factor 10a
[6] = Selectivity for thrombin over trypsin
[7] = system: Platelet; experiment: Inhibition of ADP-induced platelet aggregation in human platelet rich plasma; type: functional, cell-free

Coagulation factor X, sequence (P00742 41-179 limits assumed): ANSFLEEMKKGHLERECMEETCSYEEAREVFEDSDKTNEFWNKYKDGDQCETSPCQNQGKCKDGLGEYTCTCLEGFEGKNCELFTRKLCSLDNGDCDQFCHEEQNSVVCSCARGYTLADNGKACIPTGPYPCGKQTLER
Coagulation factor X, sequence (P00742 235-488 limits assumed): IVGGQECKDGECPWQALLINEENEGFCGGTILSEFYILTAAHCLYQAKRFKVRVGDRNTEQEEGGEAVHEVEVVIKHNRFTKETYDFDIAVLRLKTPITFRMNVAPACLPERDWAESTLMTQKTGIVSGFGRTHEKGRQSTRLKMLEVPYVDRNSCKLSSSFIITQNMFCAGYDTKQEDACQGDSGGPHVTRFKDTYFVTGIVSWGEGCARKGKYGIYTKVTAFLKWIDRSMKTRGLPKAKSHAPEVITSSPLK
Integrin alpha-IIb/beta-3, sequence (P05106 27-788 limits assumed): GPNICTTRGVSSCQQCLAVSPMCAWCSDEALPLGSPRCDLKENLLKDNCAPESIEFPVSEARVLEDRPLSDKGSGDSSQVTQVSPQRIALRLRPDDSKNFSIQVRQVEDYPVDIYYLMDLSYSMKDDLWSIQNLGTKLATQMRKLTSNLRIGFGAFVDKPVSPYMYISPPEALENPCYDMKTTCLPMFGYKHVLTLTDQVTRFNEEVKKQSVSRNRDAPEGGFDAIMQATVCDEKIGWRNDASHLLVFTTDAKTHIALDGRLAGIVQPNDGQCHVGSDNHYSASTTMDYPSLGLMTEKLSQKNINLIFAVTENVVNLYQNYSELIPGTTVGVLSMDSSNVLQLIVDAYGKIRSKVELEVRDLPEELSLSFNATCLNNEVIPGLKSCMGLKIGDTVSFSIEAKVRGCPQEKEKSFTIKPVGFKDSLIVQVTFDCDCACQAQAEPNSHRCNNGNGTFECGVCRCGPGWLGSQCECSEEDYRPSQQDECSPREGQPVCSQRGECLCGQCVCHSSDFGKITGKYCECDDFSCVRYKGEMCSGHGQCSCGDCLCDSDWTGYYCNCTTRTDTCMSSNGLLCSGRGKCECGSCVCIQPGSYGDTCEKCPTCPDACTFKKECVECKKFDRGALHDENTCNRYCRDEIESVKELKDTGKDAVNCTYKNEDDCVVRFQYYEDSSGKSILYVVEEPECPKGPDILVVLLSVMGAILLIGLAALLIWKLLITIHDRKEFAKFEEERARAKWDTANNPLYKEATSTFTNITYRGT
Integrin alpha-IIb/beta-3, sequence (P08514 32-887 limits assumed): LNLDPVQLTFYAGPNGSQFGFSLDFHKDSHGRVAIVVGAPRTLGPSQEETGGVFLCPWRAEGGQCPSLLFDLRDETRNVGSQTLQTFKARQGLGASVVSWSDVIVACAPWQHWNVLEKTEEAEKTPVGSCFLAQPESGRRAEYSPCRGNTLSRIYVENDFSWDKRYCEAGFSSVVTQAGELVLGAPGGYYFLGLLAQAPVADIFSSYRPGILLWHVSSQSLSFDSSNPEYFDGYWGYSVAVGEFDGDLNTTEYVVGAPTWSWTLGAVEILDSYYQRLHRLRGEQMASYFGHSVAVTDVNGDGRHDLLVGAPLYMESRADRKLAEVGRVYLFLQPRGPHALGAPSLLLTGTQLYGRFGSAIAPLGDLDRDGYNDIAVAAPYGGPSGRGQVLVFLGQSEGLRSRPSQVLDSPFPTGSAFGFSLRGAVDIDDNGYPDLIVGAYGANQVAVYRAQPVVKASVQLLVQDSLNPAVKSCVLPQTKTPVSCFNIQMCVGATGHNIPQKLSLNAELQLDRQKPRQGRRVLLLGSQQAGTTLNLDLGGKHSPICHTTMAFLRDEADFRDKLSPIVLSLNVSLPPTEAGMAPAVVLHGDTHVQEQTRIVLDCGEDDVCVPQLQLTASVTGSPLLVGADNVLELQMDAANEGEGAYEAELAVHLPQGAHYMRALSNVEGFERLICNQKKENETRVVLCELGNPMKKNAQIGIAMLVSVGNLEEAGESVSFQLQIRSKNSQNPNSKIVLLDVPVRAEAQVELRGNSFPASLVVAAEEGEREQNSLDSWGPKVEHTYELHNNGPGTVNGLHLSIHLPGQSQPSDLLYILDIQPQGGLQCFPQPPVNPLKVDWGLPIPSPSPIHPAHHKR
Integrin alpha-IIb/beta-3, sequence (P08514 891-1039 limits assumed): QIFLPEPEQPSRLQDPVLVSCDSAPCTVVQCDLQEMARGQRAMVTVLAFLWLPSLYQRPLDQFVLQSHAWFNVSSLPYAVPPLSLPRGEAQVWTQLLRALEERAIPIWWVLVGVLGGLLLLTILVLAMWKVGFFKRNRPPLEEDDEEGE

Structure (SMILES)	IC50 [1]	inhibition at 50 µM [2]	Ki [3]	Activity [2]	Ki [4]	Selectivity ratio [5]	Selectivity ratio [6]	IC50 [7]
CN1CC(C)(COc2ccc(C(=N)N)cc2)Oc2cc(N(Cc3ccccc3)C(=O)CCC(=O)O)ccc21 (stereo unspecified)	> 100 µM	14%	29.7 µM					
CCOC(=O)CCC(=O)N(Cc1ccccc1)c1ccc2c(c1)N(C)CC(C)(COc1ccc(C(=N)N)cc1)O2 (stereo unspecified)	> 100 µM		27.7 µM	inactive				
CN1C(=O)C(OCc2ccc(C(=N)N)cc2)Oc2cc(C(=O)N[C@@H](CC(=O)O)c3ccccc3)ccc21 (stereo partly specified)	1.64 µM		> 200 µM		14.9 µM			
CN1CC(C)(COc2ccc(C(=N)N)cc2)Oc2cc(NC(=O)c3ccccc3)ccc21 (stereo unspecified)	2.85 µM	21%	12.1 µM		5 µM	2.4	0.3	
CCOC(=O)C(=O)N(Cc1ccccc1)c1ccc2c(c1)N(C)CC(C)(COc1ccc(C(=N)N)cc1)O2 (stereo unspecified)	1.2 µM	24%	16 µM					
CN1CC(C)(COc2ccc(C(=N)N)cc2)Oc2cc(NC(=O)CCC(=O)O)ccc21 (stereo unspecified)	1.69 µM		33.8 µM		5.16 µM	6.6	0.3	36.7 µM
CCOC(=O)CCC(=O)N(Cc1ccccn1)c1ccc2c(c1)OC(C)(COc1ccc(C(=N)N)cc1)CN2C (stereo unspecified)	11.3 µM	15%	11.8 µM		0.025 µM	472	56	
CN1CC(C)(COc2ccc(C(=N)N)cc2)Oc2cc(N(Cc3ccccc3)C(=O)C(=O)O)ccc21 (stereo unspecified)	> 100 µM	26%	16.6 µM					
CCOC(=O)CN(C(=O)c1ccc2c(c1)OC(OCc1ccc(C(=N)N)cc1)C(=O)N2C)c1ccccc1 (stereo unspecified)	28.4 µM	10%	43.1 µM		3.98 µM	11	4.6	
CN1CC(C)(COc2ccc(C(=N)N)cc2)Oc2cc(NC(=O)C(Cc3ccccc3)C(=O)O)ccc21 (stereo unspecified)					5.5 µM			24.9 µM
CCOC(=O)C(Cc1ccccc1)C(=O)Nc1ccc2c(c1)N(C)CC(C)(COc1ccc(C(=N)N)cc1)O2 (stereo unspecified)	36.5 µM	8%	29.5 µM		4.93 µM	6	0.6	
CCOC(=O)CN(C(=O)c1ccccc1)c1ccc2c(c1)OC(C)(COc1ccc(C(=N)N)cc1)CN2C (stereo unspecified)	1.78 µM	21%	9.59 µM		0.156 µM	47	12	
CN1CC(C)(COc2ccc(C(=N)N)cc2)Oc2ccc(N(Cc3ccccc3)C(=O)C(=O)O)cc21 (stereo unspecified)	> 100 µM		31.7 µM					
CCOC(=O)C(C(=O)Nc1ccc2c(c1)OC(OCc1ccc(C(=N)N)cc1)C(=O)N2C)c1ccccc1 (stereo unspecified)	2.44 µM	23%	50.3 µM		9.89 µM	5.1	1.5	
CCOC(=O)C(=O)N(Cc1ccccc1)c1ccc2c(c1)OC(C)(COc1ccc(C(=N)N)cc1)CN2C (stereo unspecified)	2 µM	21%	112 µM					
CCOC(=O)CN(Cc1ccccc1)c1ccc2c(c1)OC(C)(COc1ccc(C(=N)N)cc1)CN2C (stereo unspecified)	1.45 µM	19%	2.67 µM		0.38 µM	7	4.5	
CCOC(=O)CCC(=O)N(Cc1ccccc1)c1ccc2c(c1)OC(C)(COc1ccc(C(=N)N)cc1)CN2C (stereo unspecified)	29.3 µM		18 µM	inactive	0.06 µM	300	19	
CCOC(=O)CN(Cc1ccccc1)c1ccc2c(c1)N(C)CC(C)(COc1ccc(C(=N)N)cc1)O2 (stereo unspecified)	0.73 µM	13%	11.9 µM					
CCOC(=O)C[C@H](NC(=O)c1ccc2c(c1)OC(OCc1ccc(C(=N)N)cc1)C(=O)N2C)c1ccccc1 (stereo partly specified)	24.6 µM		54.6 µM					
CN1C(=O)C(OCc2ccc(C(=N)N)cc2)Oc2cc(C(=O)Nc3ccccc3)ccc21 (stereo unspecified)	12.1 µM	19%	31.6 µM		24.2 µM	1.3	0.7	
CN1C(=O)C(OCc2ccc(C(=N)N)cc2)Oc2cc(C(=O)N(CC(=O)O)c3ccccc3)ccc21 (stereo unspecified)	> 100 µM	24%	49.6 µM		1.76 µM	28	9.4	
CCOC(=O)CCC(=O)Nc1ccc2c(c1)OC(C)(COc1ccc(C(=N)N)cc1)CN2C (stereo unspecified)	14 µM	15%	74.7 µM		16.9 µM	4.4	0.4	
CN1C(=O)C(OCc2ccc(C(=N)N)cc2)Oc2cc(C(=O)NCCC(=O)O)ccc21 (stereo unspecified)	15.2 µM	23%	112 µM		118 µM	1	0.2	
COC(=O)C(Cc1ccccc1)C(=O)Nc1ccc2c(c1)OC(C)(COc1ccc(C(=N)N)cc1)CN2C (stereo unspecified)	9.11 µM	21%	35.4 µM		2.86 µM	12	1.7	
